Laboratory results from PubChem BioAssay (NCI).
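Interpolation was linear, between the two tested concentrations surrounding the appropriate level; five concentrations were tested over 48 hours in 96-well plates. TGI marks complete inhibition of growth.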

Key:
Assay in all cases: inhibition of tumour cell growth, NCI panel, 48 h
786-0 renal = test system: 786-0 renal
A498 renal = test system: A498 renal
A549 NSCLC = test system: A549 NSCLC
CAKI-1 renal = test system: CAKI-1 renal
CCRF-CEM leukemia = test system: CCRF-CEM leukemia
COLO 205 colon = test system: COLO 205 colon
DMS 114 small cell lung = test system: DMS 114 small cell lung
DMS 273 small cell lung = test system: DMS 273 small cell lung
EKVX NSCLC = test system: EKVX NSCLC
HCT-116 colon = test system: HCT-116 colon
HCT-15 colon = test system: HCT-15 colon
HL-60(TB) leukemia = test system: HL-60(TB) leukemia
HOP-18 NSCLC = test system: HOP-18 NSCLC
HOP-92 NSCLC = test system: HOP-92 NSCLC
HT29 colon = test system: HT29 colon
IGROV1 ovarian = test system: IGROV1 ovarian
K-562 leukemia = test system: K-562 leukemia
KM12 colon = test system: KM12 colon
KM20L2 colon = test system: KM20L2 colon
LOX IMVI melanoma = test system: LOX IMVI melanoma
LXFL 529 NSCLC = test system: LXFL 529 NSCLC
M14 melanoma = test system: M14 melanoma
M19-MEL melanoma = test system: M19-MEL melanoma
MALME-3M melanoma = test system: MALME-3M melanoma
MOLT-4 leukemia = test system: MOLT-4 leukemia
NCI-H226 lung = test system: NCI-H226 lung
NCI-H23 lung = test system: NCI-H23 lung
NCI-H460 lung = test system: NCI-H460 lung
NCI-H522 lung = test system: NCI-H522 lung
OVCAR-3 ovarian = test system: OVCAR-3 ovarian
OVCAR-4 ovarian = test system: OVCAR-4 ovarian
OVCAR-5 ovarian = test system: OVCAR-5 ovarian
OVCAR-8 ovarian = test system: OVCAR-8 ovarian
RPMI-8226 leukemia = test system: RPMI-8226 leukemia
RXF 393 renal = test system: RXF 393 renal
RXF-631 renal = test system: RXF-631 renal
SF-268 CNS = test system: SF-268 CNS
SF-295 CNS = test system: SF-295 CNS
SF-539 CNS = test system: SF-539 CNS
SK-MEL-2 melanoma = test system: SK-MEL-2 melanoma
SK-MEL-28 melanoma = test system: SK-MEL-28 melanoma
SK-MEL-5 melanoma = test system: SK-MEL-5 melanoma
SK-OV-3 ovarian = test system: SK-OV-3 ovarian
SN12C renal = test system: SN12C renal
SNB-19 CNS = test system: SNB-19 CNS
SNB-75 CNS = test system: SNB-75 CNS
SNB-78 CNS = test system: SNB-78 CNS
SW-620 colon = test system: SW-620 colon
TK-10 renal = test system: TK-10 renal
U251 CNS = test system: U251 CNS
UACC-257 melanoma = test system: UACC-257 melanoma
UACC-62 melanoma = test system: UACC-62 melanoma
UO-31 renal = test system: UO-31 renal
XF 498 CNS = test system: XF 498 CNS
ACHN renal = test system: ACHN renal
DLD-1 colon = test system: DLD-1 colon
HCC-2998 colon = test system: HCC-2998 colon
HOP-62 NSCLC = test system: HOP-62 NSCLC
SR leukemia = test system: SR leukemia

O=P(c1ccccc1)(c1ccccc1)C1CC=C2CCCCCC2C1 (stereo not given)
TGI (786-0 renal): 51 µM
TGI (A498 renal): 97.7 µM
TGI (A549 NSCLC): > 10 µM
TGI (CAKI-1 renal): 69.5 µM
TGI (CCRF-CEM leukemia): 61.5 µM
TGI (COLO 205 colon): 56.4 µM
TGI (DMS 114 small cell lung): 68.2 µM
TGI (DMS 273 small cell lung): 64.5 µM
TGI (EKVX NSCLC): > 100 µM
TGI (HCT-116 colon): 40.3 µM
TGI (HCT-15 colon): > 100 µM
TGI (HL-60(TB) leukemia): 58.9 µM
TGI (HOP-18 NSCLC): 44.2 µM
TGI (HOP-92 NSCLC): 39.9 µM
TGI (HT29 colon): > 100 µM
TGI (IGROV1 ovarian): > 100 µM
TGI (K-562 leukemia): 76.9 µM
TGI (KM12 colon): > 100 µM
TGI (KM20L2 colon): > 10 µM
TGI (LOX IMVI melanoma): 65 µM
TGI (LXFL 529 NSCLC): 46.2 µM
TGI (M14 melanoma): 40.9 µM
TGI (M19-MEL melanoma): > 100 µM
TGI (MALME-3M melanoma): > 100 µM
TGI (MOLT-4 leukemia): 45.3 µM
TGI (NCI-H226 lung): 81.1 µM
TGI (NCI-H23 lung): > 100 µM
TGI (NCI-H460 lung): > 100 µM
TGI (NCI-H522 lung): 41 µM
TGI (OVCAR-3 ovarian): 50 µM
TGI (OVCAR-4 ovarian): 67.4 µM
TGI (OVCAR-5 ovarian): 62.2 µM
TGI (OVCAR-8 ovarian): 99.2 µM
TGI (RPMI-8226 leukemia): 42.7 µM
TGI (RXF 393 renal): 72.6 µM
TGI (RXF-631 renal): 85.4 µM
TGI (SF-268 CNS): 66 µM
TGI (SF-295 CNS): > 100 µM
TGI (SF-539 CNS): > 10 µM
TGI (SK-MEL-2 melanoma): 81.6 µM
TGI (SK-MEL-28 melanoma): > 10 µM
TGI (SK-MEL-5 melanoma): 46.1 µM
TGI (SK-OV-3 ovarian): 85.9 µM
TGI (SN12C renal): > 100 µM
TGI (SNB-19 CNS): 81.6 µM
TGI (SNB-75 CNS): 62.7 µM
TGI (SNB-78 CNS): > 100 µM
TGI (SW-620 colon): > 10 µM
TGI (TK-10 renal): > 100 µM
TGI (U251 CNS): > 100 µM
TGI (UACC-257 melanoma): 68.5 µM
TGI (UACC-62 melanoma): 69.6 µM
TGI (UO-31 renal): 52.7 µM
TGI (XF 498 CNS): 91.6 µM

COc1cc2c(cc1O)CCN[C@@]21CS[C@H]2c3c(OC(C)=O)c(C)c4c(c3C(COC1=O)N1C2C2NC(Cc3cc(C)c(OC)c(O)c32)[C@@H]1C#N)OCO4 (stereo not given in full)
TGI (786-0 renal): 0.162 µM
TGI (ACHN renal): 0.721 µM
TGI (CCRF-CEM leukemia): 0.0525 µM
TGI (DLD-1 colon): 0.271 µM
TGI (DMS 114 small cell lung): < 0.01 µM
TGI (EKVX NSCLC): 0.125 µM
TGI (HCC-2998 colon): < 0.01 µM
TGI (HCT-116 colon): 1.14 µM
TGI (HL-60(TB) leukemia): 0.0209 µM
TGI (HOP-62 NSCLC): 0.0107 µM
TGI (HT29 colon): 0.16 µM
TGI (KM20L2 colon): < 0.01 µM
TGI (LXFL 529 NSCLC): 0.111 µM
TGI (M14 melanoma): < 0.01 µM
TGI (M19-MEL melanoma): < 0.01 µM
TGI (MALME-3M melanoma): < 0.01 µM
TGI (MOLT-4 leukemia): < 0.01 µM
TGI (NCI-H226 lung): < 0.01 µM
TGI (NCI-H23 lung): < 0.01 µM
TGI (OVCAR-4 ovarian): < 0.01 µM
TGI (RPMI-8226 leukemia): 0.017 µM
TGI (RXF 393 renal): < 0.01 µM
TGI (SF-268 CNS): 0.104 µM
TGI (SF-539 CNS): < 0.01 µM
TGI (SK-MEL-2 melanoma): < 0.01 µM
TGI (SK-MEL-28 melanoma): 0.0268 µM
TGI (SK-MEL-5 melanoma): < 0.01 µM
TGI (SN12C renal): 0.115 µM
TGI (SNB-19 CNS): 1.87 µM
TGI (SNB-75 CNS): < 0.01 µM
TGI (SR leukemia): > 100 µM
TGI (SW-620 colon): 1.06 µM
TGI (TK-10 renal): 61 µM
TGI (U251 CNS): 0.444 µM
TGI (UACC-62 melanoma): < 0.01 µM
TGI (XF 498 CNS): < 0.01 µM
